In patent US20230219962A1, “PYRAZOLO[4,3-d]PYRIMIDINE DERIVATIVES AND METHODS OF USE THEREOF FOR THE TREATMENT OF CELLULAR PROLIFERATIVE DISORDERS” (Merck Sharp & Dohme LLC, priority 2020, published 2023):

Tests used:
[1] = molecular target: T1, hTLR7 (Homo sapiens, UniProt Q9NYK1); assay: Human TLR7 Reporter Assay; assay type: cell-based; conditions: HEK-Blue hTLR7 cells, 16 hours, normalized to CL097 (6 μM) and DMSO
T1 construct: host or cells: HEK-Blue hTLR7 cells (HEK293-derived, own knowledge)
T1 sequence (Q9NYK1 27-1049): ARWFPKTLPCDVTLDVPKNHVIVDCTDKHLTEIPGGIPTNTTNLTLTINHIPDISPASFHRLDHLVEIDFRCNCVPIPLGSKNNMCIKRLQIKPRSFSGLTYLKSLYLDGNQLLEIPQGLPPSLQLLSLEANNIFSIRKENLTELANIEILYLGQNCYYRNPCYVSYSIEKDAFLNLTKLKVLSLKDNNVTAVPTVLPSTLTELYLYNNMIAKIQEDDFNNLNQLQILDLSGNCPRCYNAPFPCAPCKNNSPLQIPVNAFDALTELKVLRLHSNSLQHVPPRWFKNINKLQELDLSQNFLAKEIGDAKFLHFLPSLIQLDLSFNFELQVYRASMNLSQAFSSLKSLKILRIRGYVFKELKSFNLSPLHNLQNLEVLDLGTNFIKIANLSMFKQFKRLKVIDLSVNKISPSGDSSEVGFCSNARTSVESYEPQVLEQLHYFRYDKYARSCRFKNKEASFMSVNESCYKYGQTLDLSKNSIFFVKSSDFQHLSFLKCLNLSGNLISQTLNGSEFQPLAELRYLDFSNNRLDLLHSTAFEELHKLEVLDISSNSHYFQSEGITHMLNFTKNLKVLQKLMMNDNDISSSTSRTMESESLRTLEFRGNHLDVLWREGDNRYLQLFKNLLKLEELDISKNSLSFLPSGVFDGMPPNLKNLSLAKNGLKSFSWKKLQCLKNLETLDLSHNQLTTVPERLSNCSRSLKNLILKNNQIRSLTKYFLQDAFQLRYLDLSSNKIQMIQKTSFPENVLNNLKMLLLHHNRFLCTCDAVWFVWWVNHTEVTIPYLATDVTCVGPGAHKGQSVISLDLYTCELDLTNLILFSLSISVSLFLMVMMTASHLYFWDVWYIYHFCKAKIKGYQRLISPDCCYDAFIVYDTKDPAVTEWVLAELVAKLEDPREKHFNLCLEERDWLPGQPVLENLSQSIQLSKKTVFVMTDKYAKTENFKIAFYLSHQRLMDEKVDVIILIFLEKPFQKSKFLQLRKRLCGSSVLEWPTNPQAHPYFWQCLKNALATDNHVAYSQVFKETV
Procedure: (§1) HEK-Blue™ hTLR7 cells (Invivogen, San Diego, Calif.) were maintained at 37° C./5% CO2/90% relative humidity in Dulbecco's Modified Eagle's Medium with 10% fetal bovine serum, 100 units/mL penicillin, 100 μg/mL streptomycin, 100 μg/mL normocin, 10 μg/mL blasticidin, and 100 μg/mL zeocin. HEK-Blue™ hTLR7 cells were maintained at 10-90% confluence and used before passage 20. For this assay, test compounds were dissolved in DMSO, and 10-point serial 3-fold dilution series in DMSO were prepared in Echo Qualified 384-well Polypropylene Microplates (Labcyte, San Jose, Calif.). Assay plates (384-well flat, clear bottom, black polystyrene TC-treated microtiter plates; Corning, Corning, N.Y.) were prepared by dispensing 150 nL of test compounds, high control (CL097; Invivogen, San Diego, Calif.), and low control (DMSO) by ECHO acoustic dispenser (Labcyte, San Jose Calif.) followed by addition of 5 μL of HEK-Blue™ Detection assay media (Invivogen, San Diego, Calif.). HEK-Blue™ hTLR7 cells in HEK-Blue™ Detection assay media (20,000 cells per well in 45 μL of media) were added to the assay plate and incubated for 16 hours at 37° C./5% CO2/90% relative humidity. For detection, assay plates were removed from the incubator, allowed to cool to ambient temperature, centrifuged at 200×g for 1 minutes, and read with an EnSpire Multimode Plate Reader (Perkin Elmer, Waltham, Mass.) for absorbance at 620 nm. Test compound effects were normalized to the window defined by the controls, CL097 (6 μM), and DMSO. Calculated % effects were fit using a 4-parameter algorithm, and EC50 was reported.

[2] = molecular target: T2, hTLR8 (Homo sapiens, UniProt Q9NR97); assay: Human TLR8 Reporter Assay; assay type: cell-based; conditions: HEK-Blue hTLR8 cells, 16 hours, normalized to tl8-506 (1 μM) and DMSO
T2 construct: host or cells: HEK-Blue hTLR8 cells (HEK293-derived, own knowledge)
T2 sequence (Q9NR97 27-1041): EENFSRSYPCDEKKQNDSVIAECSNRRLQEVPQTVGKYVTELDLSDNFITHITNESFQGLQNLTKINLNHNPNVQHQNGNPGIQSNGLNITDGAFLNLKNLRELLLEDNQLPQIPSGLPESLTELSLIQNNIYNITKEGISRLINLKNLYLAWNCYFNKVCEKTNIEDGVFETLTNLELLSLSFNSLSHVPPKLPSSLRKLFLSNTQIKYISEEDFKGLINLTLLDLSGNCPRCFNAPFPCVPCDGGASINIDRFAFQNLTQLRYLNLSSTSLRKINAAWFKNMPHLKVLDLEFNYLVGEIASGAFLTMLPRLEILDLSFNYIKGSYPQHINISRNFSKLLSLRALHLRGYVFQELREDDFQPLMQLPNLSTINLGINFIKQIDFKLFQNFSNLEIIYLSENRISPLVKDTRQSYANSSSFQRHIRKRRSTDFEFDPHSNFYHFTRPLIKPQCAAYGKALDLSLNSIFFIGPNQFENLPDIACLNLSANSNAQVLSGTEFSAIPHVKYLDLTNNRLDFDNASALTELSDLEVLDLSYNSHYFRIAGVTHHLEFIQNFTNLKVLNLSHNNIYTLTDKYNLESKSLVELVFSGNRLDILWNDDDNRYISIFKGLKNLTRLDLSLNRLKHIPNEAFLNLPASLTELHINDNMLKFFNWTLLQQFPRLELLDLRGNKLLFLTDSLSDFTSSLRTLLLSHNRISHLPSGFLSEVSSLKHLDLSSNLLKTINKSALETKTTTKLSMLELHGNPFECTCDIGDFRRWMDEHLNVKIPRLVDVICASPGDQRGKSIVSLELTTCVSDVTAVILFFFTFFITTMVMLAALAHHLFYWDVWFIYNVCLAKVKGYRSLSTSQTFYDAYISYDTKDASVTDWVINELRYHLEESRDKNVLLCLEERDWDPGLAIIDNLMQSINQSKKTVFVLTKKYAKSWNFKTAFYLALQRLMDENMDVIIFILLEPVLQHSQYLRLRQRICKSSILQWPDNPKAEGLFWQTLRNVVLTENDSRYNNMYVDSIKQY
Procedure: as §1, with “hTLR8” for “hTLR7”, “(tl8-506;” for “(CL097;”, “tl8-506 (1” for “CL097 (6”

Row | Compound | EC50 [1] [nM] | EC50 [2] [nM]
1 | CNc1nc(N)nc2cn(Cc3c(OC)cccc3OC)nc12 [Compound 43] | 1370 | > 9980
2 | CCCCNc1nc(N)nc2cn(Cc3cnccc3OC)nc12 [Compound 101] | 153 | 1260
3 | COc1cccc(OC)c1Cn1cc2nc(N)nc(NCCCO)c2n1 [Compound 47] | 8590 | > 29900
4 | CCCCNc1nc(N)nc2cn(Cc3ccc(C4CCC(=O)N4)cc3)nc12 (stereo not drawn) [Compound 203] | 526 | 11400
5 | CCCCNc1nc(N)nc2cn(Cc3c(OC)cc(NCCN)cc3OC)nc12 [Compound 114] | 529 | 4490
6 | CCCNC(C)c1ccc(Cn2cc3nc(N)nc(N[C@H](CO)CCC)c3n2)c(OC)c1 (stereo partly drawn) [Compound 231] | 619 | 48.9
7 | CCCCNc1nc(N)nc2cn(Cc3ccc(CN4CCNCC4)cc3)nc12 [Compound 112] | 1570 | 19900
8 | CCCCNc1nc(N)nc2cn(Cc3scnc3C)nc12 [Compound 181] | 171 | 1500
9 | CCNc1nc(N)nc2cn(Cc3c(OC)cccc3OC)nc12 [Compound 44] | 858 | 3930
10 | CCCCNc1nc(N)nc2cn(Cc3ccc(CCN)cc3OC)nc12 [Compound 139] | 717 | 942
11 | CCC[C@@H](CO)Nc1nc(N)nc2cn(Cc3c(OC)cc(C(C)N)cc3OC)nc12 (stereo partly drawn) [Compound 222] | 6280 | 1070
12 | COc1cccc(OC)c1Cn1cc2nc(N)nc(NCCCC(C)C)c2n1 [Compound 54] | 496 | > 29900
13 | COc1cccc(OC)c1Cn1cc2nc(N)nc(NCCC(C)O)c2n1 (stereo not drawn) [Compound 51] | 4730 | > 29900
14 | CCCNC(C)c1ccc(Cn2cc3nc(N)nc(N[C@H](CO)CCC)c3n2)c(OC)c1 (stereo partly drawn) [Compound 232] | 363 | 78.1
15 | CCCCC(CCO)Nc1nc(N)nc2cn(Cc3ccccc3OC)nc12 (stereo not drawn) [Compound 17] | 398 | > 29900
16 | CCCCNc1nc(N)nc2cn(Cc3cncn3C3CC3)nc12 [Compound 182] | 929 | 3360
17 | CCC[C@H](C)Nc1nc(N)nc2cn(Cc3c(OC)cc(Br)cc3OC)nc12 [Compound 184] | 103 | 728

Row | Compound | EC50 [1] [nM] | EC50 [2] [nM]
18 | CCCCNc1nc(N)nc2cn(Cc3ncc(CN4CCNCC4)cc3OC)nc12 [Compound 94] | 2040 | 4960
19 | CCCCNc1nc(N)nc2cn(Cc3ccc(C(C)N(C)CCC)cc3OC)nc12 (stereo not drawn) [Compound 233] | 32.3 | 456
20 | CCCCNc1nc(N)nc2cn(Cc3ccc(N4CC5(CNC5)C4)cc3OC)nc12 [Compound 116] | 988 | 4200
21 | CCCCNc1nc(N)nc2cn(Cc3ccc(N4CCN(C(=O)C5CCC(CN6C(=O)C=CC6=O)CC5)CC4)cc3OC)nc12 (stereo not drawn) [Compound 68] | 190 | 3640
22 | CCCCNc1nc(N)nc2cn(Cc3ncoc3C)nc12 [Compound 121] | 490 | 2320
23 | CCCCNc1nc(N)nc2cn(Cc3ccc(CN4CC(CN5C(=O)C=CC5=O)C4)cc3OC)nc12 [Compound 127] | 1240 | 3300
24 | CCCCNc1nc(N)nc2cn(Cc3ncnn3C)nc12 [Compound 174] | 1450 | 8320
25 | CCCCNc1nc(N)nc2cn(Cc3nnco3)nc12 [Compound 212] | 7750 | 8140
26 | CCCCNc1nc(N)nc2cn(Cc3ccc(OC)cc3)nc12 [Compound 38] | 263 | 1690
27 | CCCCNc1nc(N)nc2cn(Cc3nc(N4CCNCC4)ccc3OC)nc12 [Compound 159] | 1150 | 9550
28 | CCCCNc1nc(N)nc2cn(Cc3ccc(C(C)NCCC)cc3OC)nc12 (stereo not drawn) [Compound 217] | 51.7 | 91.7
29 | CCCCNc1nc(N)nc2cn(Cc3c(OC)cc(N4CCNCC4)cc3OC)nc12 [Compound 64] | 518 | 348
30 | COc1ccccc1Cn1cc2nc(N)nc(N3CCC(CO)C3)c2n1 (stereo not drawn) [Compound 24] | 2450 | > 29900
31 | CCCCNc1nc(N)nc2cn(Cc3c(OC)cc(CN4CCNCC4)cc3OC)nc12 [Compound 62] | 840 | 1490
32 | CCCCNc1nc(N)nc2cn(Cc3c(OC)cc(C(C)NC)cc3OC)nc12 (stereo not drawn) [Compound 209] | 200 | 161
33 | CCCCNc1nc(N)nc2cn(Cc3cccc(N4CCNCC4)c3OC)nc12 [Compound 132] | 708 | 1490
